Data on 3 molecules can be found in patent US20150164907A1, “COMPOSITIONS AND METHODS FOR TREATING DISEASE” (ANGION BIOMEDICA CORP., priority 2013, published 2015).

Molecules are shown by their SMILES. Like-named read-outs stand apart in the source and are kept apart here.

The test system of the experiment is SK-BR-3 breast cancer cells. Kind of experiment: Proliferation of SK-BR-3 breast cancer cells, checkerboard design, Cell Titer Glo after 7 days. The class given is cell-based. To be noted: for IC50: Homo sapiens. As for the experimental part: The effect of ATRA in combination with GDC-0941 or NVP-BEZ235 on the proliferation of SK-BR-3 breast cancer cells was evaluated. […] To test the combination of ATRA and PI3Km/TOR inhibitors, cells were plated in a 96-well plate and treated with compounds in a “checkerboard” design. After 7 days the cell proliferation was determined using the Cell Titer Glo reagent (Promega). […] The bliss additivity model predicts the shape of the curve and magnitude of growth inhibition if the effects of two compounds is additive.
Another method to determine the interaction between two compounds is the combination index (CI) method, which can be calculated by the computer program Calcusyn.
(In general: ATP-based viability assays read luminescence as a measure of living cells.)

The mark [1] stands for this setting: SK-BR-3, 168 h, in the absence of ATRA, 7 days, read-out: estimated IC50, proliferation of SK-BR-3 growth.
[2] abbreviates: SK-BR-3, 168 h, in the presence of 10 nM ATRA, 7 days, read-out: IC50, proliferation of SK-BR-3 cells.

As for `CC1=C(/C=C/C(C)=C/C=C/C(C)=C/C(=O)O)C(C)(C)CCC1` [ATRA, all-trans retinoic acid], the “inhibition of cell proliferation by ATRA by itself” value (10 nM ATRA alone) is recorded as “only mildly inhibited cell proliferation”. Further, where the note is “SK-BR-3, ATRA alone, read-out: estimated IC50, proliferation of SK-BR-3 cells”, the IC50 is 40 nM.
As for `CS(=O)(=O)N1CCN(Cc2cc3nc(-c4cccc5[nH]ncc45)nc(N4CCOCC4)c3s2)CC1` [GDC-0941, 2-(1H-indazol-4-yl)-6-(4-methanesulfonyl-piperazin-1-ylmethyl)-4-morpholin-4-yl-thieno[3,2-d]pyrimidine], the IC50 is, setting by setting: under setting [1], 126 nM; under setting [2], 35 nM.
With `Cn1c(=O)n(-c2ccc(C(C)(C)C#N)cc2)c2c3cc(-c4cnc5ccccc5c4)ccc3ncc21` [NVP-BEZ235], the IC50 is 145 nM under setting [1] and 57 nM under setting [2].
